Source: ChEMBL document CHEMBL5303573, “Mapping human microbiome drug metabolism by gut bacteria and their genes” (Nature, 2019)

What was measured:
[1] = The drug is tested on Edwardsiella tarda strain: ATCC23685 for biotransformation. The drug concentrations were measured before and after a 12-h incubation by liquid-chromatography-coupled mass spectrometry (LC–MS); settings: 2 µM
[2] = The drug is tested on Anaerococcus hydrogenalis strain: DSM7454 for biotransformation. The drug concentrations were measured before and after a 12-h incubation by liquid-chromatography-coupled mass spectrometry (LC–MS); settings: 2 µM
[3] = The drug is tested on Dorea formicigenerans strain: ATCC27755 for biotransformation. The drug concentrations were measured before and after a 12-h incubation by liquid-chromatography-coupled mass spectrometry (LC–MS); settings: 2 µM
[4] = The drug is tested on Bacteroides cellulosilyticus strain: DSM14838 for biotransformation. The drug concentrations were measured before and after a 12-h incubation by liquid-chromatography-coupled mass spectrometry (LC–MS); settings: 2 µM
[5] = bifidobacterium adolescentis, 12 h, 2 µM
Description: The drug is tested on Bifidobacterium adolescentis strain: ATCC 15703 for biotransformation. The drug concentrations were measured before and after a 12-h incubation by liquid-chromatography-coupled mass spectrometry (LC–MS)

[6] = The drug is tested on Eubacterium ventriosum strain: ATCC27560 for biotransformation. The drug concentrations were measured before and after a 12-h incubation by liquid-chromatography-coupled mass spectrometry (LC–MS); format: ADME; set-up: dose 2 uM, timepoint 0 vs 12 hours; settings: 2 µM
[7] = The drug is tested on Ruminococcus lactaris strain: ATCC29176 for biotransformation. The drug concentrations were measured before and after a 12-h incubation by liquid-chromatography-coupled mass spectrometry (LC–MS); settings: 2 µM
[8] = parabacteroides distasonis, 12 h, 2 µM
Description: The drug is tested on Parabacteroides distasonis strain: ATCC8503 for biotransformation. The drug concentrations were measured before and after a 12-h incubation by liquid-chromatography-coupled mass spectrometry (LC–MS)

[9] = The drug is tested on Clostridium sp. strain: fecal isolate for biotransformation. The drug concentrations were measured before and after a 12-h incubation by liquid-chromatography-coupled mass spectrometry (LC–MS); settings: 2 µM
[10] = The drug is tested on Ruminococcus gnavus strain: ATCC29149 for biotransformation. The drug concentrations were measured before and after a 12-h incubation by liquid-chromatography-coupled mass spectrometry (LC–MS); settings: mediterraneibacter gnavus, 2 µM
[11] = bacteroides fragilis, 12 h, 2 µM
Description: The drug is tested on Bacteroides fragilis strain: DS-208 for biotransformation. The drug concentrations were measured before and after a 12-h incubation by liquid-chromatography-coupled mass spectrometry (LC–MS)

[12] = The drug is tested on Bifidobacterium longum subsp. Infantis strain: CCUG52486 for biotransformation. The drug concentrations were measured before and after a 12-h incubation by liquid-chromatography-coupled mass spectrometry (LC–MS); settings: 2 µM
[13] = The drug is tested on Escherichia coli strain: BW25113 for biotransformation. The drug concentrations were measured before and after a 12-h incubation by liquid-chromatography-coupled mass spectrometry (LC–MS); settings: 2 µM
[14] = The drug is tested on Collinsella aerofaciens strain: ATCC25986 for biotransformation. The drug concentrations were measured before and after a 12-h incubation by liquid-chromatography-coupled mass spectrometry (LC–MS); settings: 2 µM
[15] = bacteroides fragilis, 12 h, 2 µM; remark: listed apart in the source
Description: The drug is tested on Bacteroides fragilis strain: NCTC 9343 for biotransformation. The drug concentrations were measured before and after a 12-h incubation by liquid-chromatography-coupled mass spectrometry (LC–MS)

[16] = The drug is tested on Clostridium symbiosum strain: ATCC14940 for biotransformation. The drug concentrations were measured before and after a 12-h incubation by liquid-chromatography-coupled mass spectrometry (LC–MS); settings: 2 µM
[17] = The drug is tested on Bacteroides caccae strain: ATCC43185 for biotransformation. The drug concentrations were measured before and after a 12-h incubation by liquid-chromatography-coupled mass spectrometry (LC–MS); settings: 2 µM
[18] = bacteroides fragilis, 12 h, 2 µM; remark: listed apart in the source
Description: The drug is tested on Bacteroides fragilis strain: 3397 (T10) for biotransformation. The drug concentrations were measured before and after a 12-h incubation by liquid-chromatography-coupled mass spectrometry (LC–MS)

[19] = The drug is tested on Subdoligranulum variabile strain: DSM15176 for biotransformation. The drug concentrations were measured before and after a 12-h incubation by liquid-chromatography-coupled mass spectrometry (LC–MS); settings: 2 µM
[20] = anaerostipes sp., 12 h, 2 µM
Description: The drug is tested on Anaerostipes sp. strain: fecal isolate for biotransformation. The drug concentrations were measured before and after a 12-h incubation by liquid-chromatography-coupled mass spectrometry (LC–MS)

Measured: Bacterial Biotransformation

CCOc1ccccc1OCCN[C@H](C)Cc1ccc(OC)c(S(N)(=O)=O)c1.Cl [TAMSULOSIN HYDROCHLORIDE]
Compound NOT metabolized: all assays above

C[C@]12C=CC(=O)C=C1CC[C@@H]1[C@@H]2C(=O)C[C@@]2(C)[C@H]1CC[C@]2(O)C(=O)CO [PREDNISONE]
Compound NOT metabolized: all assays above

CN1[C@@H]2CC[C@H]1C[C@@H](OC(=O)c1c[nH]c3ccccc13)C2 [TROPISETRON]
Compound NOT metabolized: all assays above

CN(C/C=C/C#CC(C)(C)C)Cc1cccc2ccccc12 [TERBINAFINE]
Compound NOT metabolized: all assays above
